Source: paper PMC7114507 (Virus Research, 2010)

Molecular target: T1, recHE4 (Isavirus salaris, UniProt Q9J0Y0)
T1 sequence (Q9J0Y0 17-353): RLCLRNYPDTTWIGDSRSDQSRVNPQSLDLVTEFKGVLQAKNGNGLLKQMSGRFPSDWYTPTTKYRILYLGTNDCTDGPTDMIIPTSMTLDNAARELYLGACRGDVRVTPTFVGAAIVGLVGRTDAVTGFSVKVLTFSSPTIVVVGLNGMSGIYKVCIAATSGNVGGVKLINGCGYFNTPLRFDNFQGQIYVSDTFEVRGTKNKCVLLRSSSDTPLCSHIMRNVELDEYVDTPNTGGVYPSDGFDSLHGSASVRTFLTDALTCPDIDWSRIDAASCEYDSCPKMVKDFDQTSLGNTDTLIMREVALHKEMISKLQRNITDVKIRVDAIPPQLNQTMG
Experiment: fluorescence acetylesterase assay, recHE on cobalt beads
Assay type: biochemical
Conditions: 0-500 uM substrate, PBS pH 7.4, RT; bead-bound

## CC(=O)Oc1ccc2c(C)cc(=O)oc2c1 [4-methylumbelliferyl acetate]
  fluorescence acetylesterase assay, recHE on cobalt beads: recHE4 and recHE7 proteins exhibit similar acetylesterase activities with all substrate concentrations tested
